Where a name gives a salt, the structure may show the parent alone.

The target of this test is T1, DPP-IV (Homo sapiens, UniProt P27487).
T1 construct: Soluble human DPP-IV lacking the transmembrane anchor (Gly31-Pro766); Pre-Pro-alpha-mating factor secretion leader (N, cleaved yes); made in house
T1 sequence (P27487 31-766): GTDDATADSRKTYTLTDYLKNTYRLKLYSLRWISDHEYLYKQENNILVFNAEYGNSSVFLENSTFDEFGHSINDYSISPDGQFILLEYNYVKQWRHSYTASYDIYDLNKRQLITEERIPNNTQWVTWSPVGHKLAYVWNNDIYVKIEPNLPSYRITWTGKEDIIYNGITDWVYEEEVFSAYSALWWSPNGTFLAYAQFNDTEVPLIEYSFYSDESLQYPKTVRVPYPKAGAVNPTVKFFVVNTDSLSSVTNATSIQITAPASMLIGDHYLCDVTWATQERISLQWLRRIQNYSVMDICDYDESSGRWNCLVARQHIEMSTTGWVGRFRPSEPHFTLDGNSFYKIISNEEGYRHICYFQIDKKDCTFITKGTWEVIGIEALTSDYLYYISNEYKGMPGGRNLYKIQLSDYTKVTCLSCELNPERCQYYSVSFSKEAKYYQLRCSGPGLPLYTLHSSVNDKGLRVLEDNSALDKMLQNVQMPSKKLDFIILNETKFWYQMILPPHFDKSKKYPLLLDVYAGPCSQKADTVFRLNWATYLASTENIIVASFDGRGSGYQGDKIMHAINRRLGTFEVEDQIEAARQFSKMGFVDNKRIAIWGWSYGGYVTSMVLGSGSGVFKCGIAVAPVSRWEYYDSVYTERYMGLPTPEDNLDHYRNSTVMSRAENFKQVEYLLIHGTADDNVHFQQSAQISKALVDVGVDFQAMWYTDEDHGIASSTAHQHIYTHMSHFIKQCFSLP
The test is described as follows: Continuous fluorimetric assay of inhibition of DPP-IV peptidase activity (cleavage of Gly-Pro-AMC). The format is biochemical. Particulars: substrate Gly-Pro-AMC 16 μM, pH 7.4, 25° C., 1% DMSO; assays carried out with human and porcine DPP-IV (comparable activities). The procedure: Inhibition of DPP-IV peptidase activity was monitored with a continuous fluorimetric assay. This assay is based on the cleavage of the substrate Gly-Pro-AMC (Bachem) by DPP-IV, releasing free AMC. The assay is carried out in 96-well microtiterplates. In a total volume of 100 μl compounds are preincubated with […] DPP-IV employing a buffer containing 10 mM Hepes, 150 mM NaCl, 0.005% Tween 20 (pH 7.4). […] The final concentration of DMSO is 1%. The inhibitory potential of the compounds were determined.
Soluble human DPP-IV lacking the transmembrane anchor (Gly31-Pro766) was expressed in a recombinant YEAST-strain as Pre-Pro-alpha-mating fusion. The secreted product (rhuDPP-IV-Gly31-Pro766) was purified from fermentation broth (>90% purity).
A word on the IC50: it is the midpoint of a concentration-inhibition curve. A lower IC50 goes with greater potency. `N[C@@H](CC(=O)N1CCC[C@H]1c1nc(-c2ccccc2)no1)Cc1ccccc1F` [Example 1, (R)-3-Amino-4-(2-fluoro-phenyl)-1-[(S)-2-(3-phenyl-[1,2,4]oxadiazol-5-yl)-pyrrolidin-1-yl]-butan-1-one hydrochloride] showed an IC50 below 100 nM. `N[C@@H](CC(=O)N1CCC[C@H]1c1nc(-c2cccc(Cl)c2)no1)Cc1ccccc1F` [Example 2, (R)-3-Amino-1-{(S)-2-[3-(3-chloro-phenyl)[1,2,4]oxadiazol-5-yl)-pyrrolidin-1-yl}-4-(2-fluoro-phenyl)-butan-1-one hydrochloride]: the IC50 is below 100 nM. Compound `N[C@@H](CC(=O)N1CCC[C@H]1c1nc(-c2cccc(F)c2)no1)Cc1ccccc1F` [Example 3, (R)-3-Amino-1-{(S)-2-[3-(3-fluoro-phenyl) [1,2,4]oxadiazol-5-yl)-pyrrolidin-1-yl}-4-(2-fluoro-phenyl)-butan-1-one hydrochloride] displayed an IC50 below 100 nM. `CS(=O)(=O)c1ccc(-c2noc([C@@H]3CCCN3C(=O)C[C@H](N)Cc3ccccc3F)n2)cc1` [Example 4, (R)-3-Amino-4-(2-fluoro-phenyl)-1-{(S)-2-[3-(4-methanesulphonyl-phenyl)[1,2,4]oxadiazol-5-yl]-pyrrolidin-1-yl}-butan-1-one hydrochloride]: the IC50 is below 100 nM. With `N[C@@H](CC(=O)N1CCC[C@H]1c1nc(-c2ccccn2)no1)Cc1ccccc1F` [Example 5, (R)-3-Amino-4-(2-fluoro-phenyl)-1-[(S)-2-(3-pyridin-2-yl-[1,2,4]oxadiazol-5-yl)-pyrrolidin-1-yl]-butan-1-one] the figure was below 100 nM; with `N[C@@H](CC(=O)N1CCC[C@H]1c1nc(-c2cccc(F)c2)no1)Cc1cccc(Cl)c1` [Example 6, (R)-3-Amino-4-(3-chloro-phenyl)-1-{(S)-2-[3-(3-fluoro-phenyl)-[1,2,4]oxadiazol-5-yl]-pyrrolidin-1-yl}-butan-1-one trifluoroacetic acid salt], below 100 nM. With `N[C@@H](CC(=O)N1CCC[C@H]1c1nc(-c2cc(F)cc(F)c2)no1)Cc1ccccc1F` [Example 7, (R)-3-Amino-1-{(S)-2-[3-(3,5-difluoro-phenyl)-[1,2,4]oxadiazol-5-yl)-pyrrolidin-1-yl}-4-(2-fluoro-phenyl)-butan-1-one trifluoracetic acid salt] the figure was below 100 nM. In the case of `N[C@@H](CC(=O)N1CCC[C@H]1c1nc(-c2ccc(F)cc2F)no1)Cc1ccccc1F` [Example 8, (R)-3-Amino-1-{(S)-2-[3-(2,4-difluoro-phenyl)-[1,2,4]oxadiazol-5-yl)-pyrrolidin-1-yl}-4-(2-fluoro-phenyl)-butan-1-one trifluoracetic acid salt] it was below 100 nM. In turn, `CS(=O)(=O)c1cccc(-c2noc([C@@H]3CCCN3C(=O)C[C@H](N)Cc3ccccc3F)n2)c1` [Example 9, (R)-3-Amino-1-{(S)-2-[3-(3-methanesulphonyl-phenyl)-[1,2,4]oxadiazol-5-yl)-pyrrolidin-1-yl}-4-(2-fluoro-phenyl)-butan-1-one trifluoracetic acid salt] showed an IC50 below 100 nM.

The compound `CS(=O)(=O)Nc1ccc(-c2noc([C@@H]3CCCN3C(=O)C[C@H](N)Cc3ccccc3F)n2)cc1` [Example 10, N-[4-(5-{(S)-1-[(R)-3-Amino-4-(2-fluoro-phenyl)-butyryl]-pyrrolidin-2-yl}-[1,2,4]oxadiazol-3-yl)-phenyl]-methanesulphonamide trifluoroacetic acid salt] gave an IC50 below 100 nM. Turning to `N[C@@H](CC(=O)N1CCC[C@H]1c1nc(C2CC2)no1)Cc1ccccc1F` [Example 11, (R)-3-Amino-1-[(S)-2-(3-cyclopropyl-[1,2,4]oxadiazol-5-yl)-pyrrolidin-1-yl]-4-(2-fluorophenyl)-butan-1-one trifluoracetic acid salt], the IC50 was below 100 nM.

With `N[C@@H](CC(=O)N1CCC[C@H]1c1nc(C2CCC2)no1)Cc1cc(F)c(F)cc1F` [Example 15, (R)-3-Amino-1-[(S)-2-(3-cyclobutyl-[1,2,4]oxadiazol-5-yl)-pyrrolidin-1-yl]-4-(2,4,5-trifluoro-phenyl)-butan-1-one formate salt], the IC50 is below 100 nM. `COCC(C)(C)c1noc([C@@H]2CCCN2C(=O)C[C@H](N)Cc2cc(F)c(F)cc2F)n1` [Example 24, (R)-3-Amino-1-{(S)-2-[3-(2-methoxy-1,1-dimethyl-ethyl)-[1,2,4]oxadiazol-5-yl]-pyrrolidin-1-yl}-4-(2,4,5-trifluoro-phenyl)-butan-1-one formate salt] had an IC50 below 100 nM.

`COCC1(c2noc([C@@H]3CCCN3C(=O)C[C@H](N)Cc3cc(F)c(F)cc3F)n2)CC1` [Example 25, (R)-3-Amino-1-{(S)-2-[3-(1-methoxymethyl-cyclopropyl)-[1,2,4]oxadiazol-5-yl]-pyrrolidin-1-yl}-4-(2,4,5-trifluoro-phenyl)-butan-1-one formate salt] gave an IC50 below 100 nM.

For `N[C@@H](CC(=O)N1CC(F)(F)C[C@H]1c1nc(C2CC2)no1)Cc1cc(F)c(F)cc1F` [Example 27, (R)-3-Amino-1-[(S)-2-(3-cyclopropyl-[1,2,4]oxadiazol-5-yl)-4,4-difluoro-pyrrolidin-1-yl]-4-(2,4,5-trifluoro-phenyl)-butan-1-one formate salt], the IC50 was below 100 nM.

Turning to `N[C@@H](CC(=O)N1CCC[C@@H]1c1nc(-c2ccccc2)no1)Cc1ccccc1F` [Example 28, (R)-3-Amino-4-(2-fluoro-phenyl)-1-[(R)-2-(3-phenyl-[1,2,4]oxadiazol-5-yl)-pyrrolidin-1-yl]-butan-1-one hydrochloride], the IC50 is 101 to 1000 nM.

On to `N[C@@H](CC(=O)N1CCC[C@@H]1c1nc(-c2cccc(Cl)c2)no1)Cc1ccccc1F` [Example 29, (R)-3-Amino-1-{(R)-2-[3-(3-chloro-phenyl) [1,2,4]oxadiazol-5-yl)-pyrrolidin-1-yl}-4-(2-fluoro-phenyl)-butan-1-one hydrochloride], for which the IC50 was 101 to 1000 nM. In the case of `N[C@@H](CC(=O)N1CCC[C@@H]1c1nc(-c2cccc(F)c2)no1)Cc1ccccc1F` [Example 30, (R)-3-Amino-1-{(R)-2-[3-(3-fluoro-phenyl) [1,2,4]oxadiazol-5-yl)-pyrrolidin-1-yl}-4-(2-fluoro-phenyl)-butan-1-one hydrochloride], the IC50 was in the range of 101 to 1000 nM. For `CS(=O)(=O)c1ccc(-c2noc([C@H]3CCCN3C(=O)C[C@H](N)Cc3ccccc3F)n2)cc1` [Example 31, (R)-3-Amino-4-(2-fluoro-phenyl)-1-{(R)-2-[3-(4-methanesulphonyl-phenyl) [1,2,4]oxadiazol-5-yl]-pyrrolidin-1-yl}-butan-1-one hydrochloride], the half-inhibitory concentration (IC50) was below 100 nM. Consider `N[C@@H](CC(=O)N1CCC[C@@H]1c1nc(-c2ccccn2)no1)Cc1ccccc1F` [Example 32, (R)-3-Amino-4-(2-fluoro-phenyl)-1-[(R)-2-(3-pyridin-2-yl-[1,2,4]oxadiazol-5-yl)pyrrolidin-1-yl]-butan-1-one hydrochloride], for which the IC50 was in the range of 101 to 1000 nM. In turn, `N[C@@H](CC(=O)N1CCC[C@H]1c1noc(-c2ccc(F)cn2)n1)Cc1cc(F)c(F)cc1F` [Example 36, (R)-3-Amino-1-{(S)-2-[5-(5-fluoro-pyridin-2-yl)-[1,2,4]oxadiazol-3-yl]-pyrrolidin-1-yl}-4-(2,4,5-trifluoro-phenyl)-butan-1-one formate salt] yielded a half-inhibitory concentration (IC50) below 100 nM. Regarding `N[C@@H](CC(=O)N1CCC[C@H]1c1nc2cc(Cl)ccc2[nH]1)Cc1ccccc1F` [Example 40, (R)-3-Amino-1-[(S)-2-(5-chloro-1H-benzoimidazol-2-yl)-pyrrolidin-1-yl]-4-(2-fluorophenyl)-butan-1-one trifluoroacetic acid salt], the IC50 was below 100 nM. For `N[C@@H](CC(=O)N1CCC[C@H]1c1ncc(-c2ccccc2)[nH]1)Cc1ccccc1F` [Example 41, formate salt], the IC50 was in the range of 101 to 1000 nM. With `N[C@@H](CC(=O)N1CCC[C@H]1c1cn(-c2ccccc2)nn1)Cc1ccccc1F` [Example 42, formate salt], the IC50 lay in the range of 101 to 1000 nM.

In turn, `N[C@@H](CC(=O)N1CCC[C@H]1c1ncn(-c2ccccc2)n1)Cc1ccccc1F` [Example 43, formate salt] yielded an IC50 below 100 nM. `N[C@@H](CC(=O)N1CCC[C@H]1c1nnc(-c2ccccc2)[nH]1)Cc1ccccc1F` [Example 44, formate salt] returned an IC50 of 101 to 1000 nM. Take `N[C@@H](CC(=O)N1CCC[C@H]1c1nc(-c2ccccc2)co1)Cc1ccccc1F` [Example 45, formate salt]: the IC50 is below 100 nM. Compound `N[C@@H](CC(=O)N1CCC[C@H]1c1nnc(-c2ccccc2)o1)Cc1ccccc1F` [Example 46, formate salt] yielded an IC50 of 101 to 1000 nM. The compound `N[C@@H](CC(=O)N1CCC[C@H]1c1ccn(-c2ccccc2)n1)Cc1ccccc1F` [Example 47, formate salt] displayed an IC50 of 101 to 1000 nM. Regarding `CC(C)(C)n1cnc([C@@H]2CCCN2C(=O)C[C@H](N)Cc2cc(F)c(F)cc2F)n1` [Example 48], the IC50 is below 100 nM.

For the compound `CC(C)(C)c1noc([C@@H]2CCN2C(=O)C[C@H](N)Cc2cc(F)c(F)cc2F)n1` [Example 49, (R)-3-Amino-1-[(S)-2-(3-tert-butyl-[1,2,4]oxadiazol-5-yl)-azetidin-1-yl]-4-(2,4,5-trifluorophenyl)-butan-1-one formate salt], the IC50 was below 100 nM.

For the origin of these results see patent publication US20080015146A1, “Dpp-IV Inhibitors” (SANTHERA PHARMACEUTICALS (DEUTSCHLAND) AG, priority 2004, published 2008).
